Data on 35 compounds can be found in PubChem BioAssay AID1259408 (Genetic Toxicology Data Bank (GENE-TOX), 2018).

SMILES strings stand for the structures. Active and inactive are the calls of the source. How the calls were made is not given here.

This data set deals with GENE-TOX genotoxicity assays, various organisms and cells. Kind of data set: GENE-TOX mutagenicity studies. The note with it: for call: Assay Type: In vivo carcinogenicity studies.
[1] abbreviates: Species/Cell Type: Bacillus subtilis (H17 vs M45), Assay Type: Rec-assay, spot test, DNA effects (bacterial DNA repair), Assay Code: REW+, Evaluation Type: Evaluation A (Pre-1980).
Setting [2] is: Species/Cell Type: Salmonella typhimurium (one or more of the five standard strains: TA98, TA100, TA1535, TA1537, and TA1538), Assay Type: Histidine reverse gene mutation, Ames assay, Assay Code: SALT, Evaluation Type: Evaluation A (Pre-1980).
Where [3] appears, read: Species/Cell Type: Salmonella typhimurium, Assay Type: Forward and reverse gene mutation, host-mediated assay, Assay Code: HMA-, Evaluation Type: Evaluation A (Pre-1980).
Setting [4] is: Species/Cell Type: Allium cepa, Assay Type: Chromosome aberrations, Assay Code: ALC+, Evaluation Type: Evaluation A (Pre-1980).
The mark [5] stands for this setting: Species/Cell Type: Bacillus subtilis (H17 vs M45), Assay Type: Rec-assay, spot test, DNA effects (bacterial DNA repair), Assay Code: REWT, Evaluation Type: Evaluation A (Pre-1980).
The mark [6] stands for this setting: Species/Cell Type: Nonhuman, Assay Code: CCG+, Evaluation Type: Evaluation A (Pre-1980).
Setting [7] is: Species/Cell Type: Salmonella typhimurium (one or more of the five standard strains: TA98, TA100, TA1535, TA1537, and TA1538), Assay Type: Histidine reverse gene mutation, Ames assay, Assay Code: SAL+*, Activation: With metabolic activation, Evaluation Type: Evaluation A (Pre-1980).
[8] abbreviates: Species/Cell Type: Salmonella typhimurium (one or more of the five standard strains: TA98, TA100, TA1535, TA1537, and TA1538), Assay Type: Histidine reverse gene mutation, Ames assay, Assay Code: SAL+, Evaluation Type: Evaluation A (Pre-1980).
The mark [9] stands for this setting: Species/Cell Type: Escherichia coli WP2 UVRA, Assay Type: Tryptophan reverse gene mutation, Assay Code: WPU-*, Activation: With metabolic activation, Evaluation Type: Evaluation A (Pre-1980).
Where [10] appears, read: Species/Cell Type: Salmonella typhimurium (one or more of the five standard strains: TA98, TA100, TA1535, TA1537, and TA1538), Assay Type: Histidine reverse gene mutation, Ames assay, Assay Code: SAL-, Evaluation Type: Evaluation A (Pre-1980).
[11] abbreviates: Species/Cell Type: Nonhuman, Assay Type: Sister-chromatid exchange (SCE) in vitro, Assay Code: SC2+D, Dose Response: With dose response, Evaluation Type: Evaluation B (Post-1980).
The mark [12] stands for this setting: Species/Cell Type: Saccharomyces cerevisiae, Assay Type: Mitotic recombination or gene conversion, Assay Code: YEH+, Evaluation Type: Evaluation A (Pre-1980).
The mark [13] stands for this setting: Species/Cell Type: Human diploid fibroblasts, Assay Type: Unscheduled DNA synthesis (UDS) in vitro, DNA effects, Assay Code: UDH-, Evaluation Type: Evaluation A (Pre-1980).
The mark [14] stands for this setting: Species/Cell Type: Nonhuman, Assay Type: Sister-chromatid exchange (SCE) in vivo, Assay Code: SC3T, Evaluation Type: Evaluation B (Post-1980).

In the case of `C[As]=S` (stereo not given), under setting [1], the mutagenic call was “active; positive”. With `Oc1cc(Cl)c(-c2cc(Cl)ccc2Cl)cc1Cl`, the mutagenic call under setting [2] is “no conclusion”. Turning to `COc1ccc(/C=N/NC(=O)c2ccncc2)c(C(=O)O)c1OC`, the mutagenic call under setting [3] was “inactive; negative”. Still for that read-out and setting: as for `CCCCSC(=Nc1cccnc1)SCc1ccc(C(C)(C)C)cc1`, the entry is “inactive; negative”. Consider `Cc1cc(C)[o+]c(C)c1`, for which the mutagenic call under setting [4] is “active; positive”. Consider `CC(=O)NN`, for which the mutagenic call (Species/Cell Type: Mammalian polychromatic erythrocytes, Assay Type: Micronucleus test, chromosome aberrations, Assay Code: MNT+U, Dose Response: Unconfirmed positive response, Evaluation Type: Evaluation B (Post-1980)) is “active; positive”. Regarding `c1ccc2c(c1)ncn2CN1CCCCC1`, the mutagenic call (Species/Cell Type: Arabidopsis species, Assay Type: Gene mutation, Assay Code: ARM-, Evaluation Type: Evaluation A (Pre-1980)) was “inactive; negative”. `Cc1ccc(N=O)cc1`: the mutagenic call (Species/Cell Type: Saccharomyces cerevisiae, Assay Type: Mitotic recombination or gene conversion, Assay Code: YEC+, Evaluation Type: Evaluation A (Pre-1980)) was “active; positive”.

For the compound `O=S(=O)(O)c1ccc(N=Nc2c(O)ccc3ccccc23)c2ccccc12`, the mutagenic call under setting [5] is on record as “no conclusion”.

As for `CNc1nc2c(c(=O)n(C)c(=O)n2C)n1C`, the mutagenic call under setting [4] is “active; positive”. In the case of `C=C(Cl)CSC(=S)N(CC)CC`, the call under setting [6] is “active; positive”. The mutagenic call under setting [7] is “active; positive”.

On to `C[C@]12CC[C@H]3[C@@H](CCC4=CC(=O)CC[C@@]43C)[C@@H]1CC[C@@H]2OC(=O)CCC1CCCC1`, for which the mutagenic call (Species/Cell Type: Human, Sex: Male, Assay Type: Sperm morphology, Assay Code: SPH+, Evaluation Type: Evaluation A (Pre-1980)) is “active; positive”. For `O=CNc1nc(-c2ccc([N+](=O)[O-])s2)cs1`, the mutagenic call under setting [8] is “active; positive”. Regarding `OC[C@@H](O)[C@@H](O)[C@H](O)[C@H](O)CO`, the mutagenic call under setting [9] was “inactive; negative”. For the same compound, the call (Species/Cell Type: Nonhuman, Assay Code: CCG-, Evaluation Type: Evaluation A (Pre-1980)) was “inactive; negative”. For the compound `O=C1OC(=O)c2c(Br)c(Br)c(Br)c(Br)c21`, the mutagenic call under setting [10] is “inactive; negative”. Take `BrCC1CO1` (stereo not given): the mutagenic call (Species/Cell Type: Neurospora crassa, Assay Type: Reverse gene mutation, Assay Code: NER+, Evaluation Type: Evaluation A (Pre-1980)) was “active; positive”. Consider `CCN(CC)Cc1cc(Br)ccc1OCC(=O)N/N=C/c1ccccc1O`, for which the mutagenic call (Species/Cell Type: Saccharomyces cerevisiae, Assay Type: Reverse gene mutation, Assay Code: YERT, Evaluation Type: Evaluation A (Pre-1980)) was “no conclusion”. Take `C1=CC[C@@H](c2cccnc2)NC1`: under setting [11], the mutagenic call was “active; positive”.

On to `O=[N+]([O-])c1cnc[nH]1`, for which the mutagenic call under setting [2] is listed as “no conclusion”. As to `CC(=O)O[C@H]1C[C@@H]2CC[C@@H]3[C@H](CC[C@@]4(C)[C@H]3C[C@H]([N+]3(C)CCCCC3)[C@@H]4OC(C)=O)[C@@]2(C)C[C@@H]1[N+]1(C)CCCCC1`, under setting [2], the mutagenic call was “no conclusion”. `O[C@H]1C=Cc2cc3c4ccccc4c4ccccc4c3cc2[C@@H]1O`: the mutagenic call under setting [11] was “active; positive”. Take `O=[N+]([O-])O.[Cr]`: the mutagenic call under setting [2] is given as “no conclusion”. Consider `O=C1c2c(O)ccc(O)c2C(=O)c2c(NCCNCCO)ccc(NCCNCCO)c21`, for which the mutagenic call (Species/Cell Type: Nonhuman, Assay Type: Sister-chromatid exchange (SCE) in vitro, Assay Code: SC2+, Evaluation Type: Evaluation B (Post-1980)) was “active; positive”.

`CI`: the mutagenic call is, setting by setting: (Species/Cell Type: Escherichia coli polA (W3119 vs P3478), Assay Type: Rec-assay, DNA effects (bacterial DNA repair), Assay Code: RE1+, Evaluation Type: Evaluation A (Pre-1980)) “active; positive”; (Species/Cell Type: Mouse lymphoma (L5178Y) cells, Assay Type: Forward gene mutation at the thymidine kinase (TK) locus, chromosome aberrations, Assay Code: L51+, Evaluation Type: Evaluation A (Pre-1980)) “active; positive”; under setting [12], “active; positive”; (Species/Cell Type: Syrian hamster embryo (SHE) cells, Assay Type: Cell transformation, clonal assay, Assay Code: CTC+, Evaluation Type: Evaluation A (Pre-1980)) “active; positive”. The call under setting [6] was “active; positive”. Turning to `CNN`, the mutagenic call is “active; positive” (Species/Cell Type: Escherichia coli WP2 UVRA, Assay Type: Tryptophan reverse gene mutation, Assay Code: WPU+, Evaluation Type: Evaluation A (Pre-1980)); “inactive; negative” under setting [13]; “inactive; negative” (Species/Cell Type: Rodents, Sex: Male, Assay Type: Dominant lethal test, Assay Code: DLT-, Evaluation Type: Evaluation A (Pre-1980)); “inactive; negative” (Species/Cell Type: Saccharomyces cerevisiae, Assay Type: Mitotic recombination or gene conversion, Assay Code: YEC-, Evaluation Type: Evaluation A (Pre-1980)); “active; positive” under setting [7]. The call (Species/Cell Type: Nonhuman, Assay Code: CCG+L, Evaluation Type: Evaluation A (Pre-1980)) was “active; positive”. Regarding `C=CCc1ccc(O)c(OC)c1`, the mutagenic call was “no conclusion” (Species/Cell Type: Human lymphocytes, Assay Type: Sister-chromatid exchange (SCE) in vitro, Assay Code: SCLT, Evaluation Type: Evaluation B (Post-1980)); “active; positive” (Species/Cell Type: Mammalian polychromatic erythrocytes, Assay Type: Micronucleus test, chromosome aberrations, Assay Code: MNT+, Evaluation Type: Evaluation B (Post-1980)); “no conclusion” (Species/Cell Type: Salmonella typhimurium, Assay Type: Forward and reverse gene mutation, host-mediated assay, Assay Code: HMAT, Evaluation Type: Evaluation A (Pre-1980)). On to `O=C1c2ccccc2NC(c2ccc([N+](=O)[O-])o2)N1O` (stereo not given), for which the mutagenic call (Species/Cell Type: Mammalian polychromatic erythrocytes, Assay Type: Micronucleus test, chromosome aberrations, Assay Code: MNT-, Evaluation Type: Evaluation B (Post-1980)) was “inactive; negative”. For the compound `CC(=O)OC[C@H]1O[C@@H](Oc2ccc(O)c3c2C(=O)c2ccccc2C3=O)[C@H](OC(C)=O)[C@@H](OC(C)=O)[C@@H]1OC(C)=O`, under setting [2], the mutagenic call is recorded as “no conclusion”.

Regarding `O[C@H]1[C@@H](O)Cc2c(cc3ccc4cccc5ccc2c3c45)[C@@H]1O`, the mutagenic call (Species/Cell Type: Chinese hamster lung (V79) cells, Assay Type: Forward gene mutation at the HPRT or ouabain locus, Assay Code: V79-, Evaluation Type: Evaluation A (Pre-1980)) is “inactive; negative”.

As to `Cc1cc(C)cc(O)c1`, for the setting “Species/Cell Type: Allium cepa, Assay Type: Chromosome aberrations, Assay Code: ALCT, Evaluation Type: Evaluation A (Pre-1980)”, the mutagenic call was “no conclusion”. In the case of `O=C(O)CSc1ccc2c3c(cccc13)C(=O)c1ccccc1-2`, the mutagenic call under setting [8] is “active; positive”.

Take `CCC1(c2ccccc2)C(=O)N=C(O)NC1=O` (stereo not given): the mutagenic call by setting is: (Species/Cell Type: Drosophila melanogaster, Assay Type: Sex-linked recessive lethal gene mutation, Assay Code: SRLT, Evaluation Type: Evaluation A (Pre-1980)) “no conclusion”; (Species/Cell Type: Mouse, Sex: Male, Assay Type: Sperm morphology, Assay Code: SPI-, Evaluation Type: Evaluation A (Pre-1980)) “inactive; negative”; under setting [14], “no conclusion”; under setting [10], “inactive; negative”. Regarding `O=[N+]([O-])[O-].O=[N+]([O-])[O-].[Mn+2]`, the mutagenic call under setting [1] is “active; positive”. In the case of `ONc1ncnc2nc[nH]c12`, where the note is “Species/Cell Type: Neurospora crassa, Assay Type: Forward gene mutation, Assay Code: NEF+, Evaluation Type: Evaluation A (Pre-1980)”, the mutagenic call is “active; positive”. In the case of `COP(=O)(NC(C)=O)SC` (stereo not given), the mutagenic call reads like this: under setting [5], “no conclusion”; (Species/Cell Type: Drosophila melanogaster, Assay Type: Sex-linked recessive lethal gene mutation, Assay Code: SRL-, Evaluation Type: Evaluation A (Pre-1980)) “inactive; negative”; under setting [9], “inactive; negative”; (Species/Cell Type: Escherichia coli polA (W3119 vs P3478), Assay Type: Rec-assay, DNA effects (bacterial DNA repair), Assay Code: RE1T, Evaluation Type: Evaluation A (Pre-1980)) “no conclusion”; under setting [13], “inactive; negative”; (Species/Cell Type: Mammalian polychromatic erythrocytes, Assay Type: Micronucleus test, chromosome aberrations, Assay Code: MNTT, Evaluation Type: Evaluation B (Post-1980)) “no conclusion”. Besides, the mutagenic call is “inactive; negative” (Species/Cell Type: Neurospora crassa, Assay Type: Aneuploidy, chromosome aberrations, Assay Code: NEN-, Evaluation Type: Evaluation A (Pre-1980)); “no conclusion” under setting [14]; “active; positive” under setting [12]; “inactive; negative” under setting [10].
